Results reported in ChEMBL document CHEMBL5154660, “Straightforward access to novel mitochondriotropics derived from 2-arylethanol as potent and selective antiproliferative agents” (Eur J Med Chem, 2022).
The source made the active and inactive calls. The calls are words filed in the database; no cut-off is given here.

How the values were obtained:
[1] = system: HeLa; experiment: Antiproliferative activity against human HeLa cells assessed as reduction in cell growth; format: functional
[2] = system: WiDr; experiment: Antiproliferative activity against human WiDr cells assessed as reduction in cell growth; format: functional
[3] = system: A549; experiment: Antiproliferative activity against human A549 cells assessed as reduction in cell growth; format: functional
[4] = system: HBL-100; experiment: Antiproliferative activity against human HBL-100 cells assessed as reduction in cell growth; format: functional
[5] = system: SW1573; experiment: Antiproliferative activity against human SW1573 cells assessed as reduction in cell growth; format: functional
[6] = system: T47D; experiment: Antiproliferative activity against human T47D cells assessed as reduction in cell growth; format: functional
[7] = Antiproliferative activity against human hTERT-BJ cells assessed as reduction in cell growth; format: toxicity, cell-based
[8] = system: NCI-H460; experiment: Cell cycle arrest in human NCI-H460 cells assessed as increase in accumulation at G2/M phase at 600 nM measured after 48 hrs by propidium iodide staining based flow cytometry analysis; format: functional
[9] = system: NCI-H460; experiment: Cell cycle arrest in human NCI-H460 cells assessed as increase in accumulation at subG1 phase at 600 nM measured after 48 hrs by propidium iodide staining based flow cytometry analysis; format: functional
[10] = system: NCI-H460; experiment: Antiproliferative activity against human multi-drug resistant NCI-H460/R cells overexpressing P-glycoprotein assessed as reduction in cell growth measured after 48 hrs by sulforhodamine B assay; format: functional
[11] = system: NCI-H460; experiment: Induction of mitochondrial membrane potential loss in human NCI-H460 cells assessed as depolarization of mitochondrial membrane at 600 nM incubated for 48 hrs by JC-1 staining based flow cytometry assay; format: functional, cell-based
[12] = system: NCI-H460; experiment: Induction of apoptosis in human NCI-H460 cells assessed as increase in necrotic cells at 600 nM incubated for 48 hrs by annexin-V-FITC and PI staining based flow cytometry analysis (reference value: 2 %); format: functional
[13] = system: NCI-H460; experiment: Induction of mitochondrial membrane potential loss in human NCI-H460 cells assessed as depolarization of mitochondrial membrane at 600 nM incubated for 24 hrs by JC-1 staining based flow cytometry assay; format: functional, cell-based
[14] = Antiproliferative activity against human MRC5 cells assessed as reduction in cell growth measured after 48 hrs by sulforhodamine B assay; format: toxicity, cell-based
[15] = Resistant index, ratio of GI50 for human multi-drug resistant NCI-H460/R cells to GI50 for human NCI-H460 cells; format: functional
[16] = system: NCI-H460; experiment: Antiproliferative activity against human multi-drug resistant NCI-H460/R cells overexpressing P-glycoprotein assessed as cell growth inhibition in presence of tariquidar measured after 48 hrs by sulforhodamine B assay; format: functional; settings: dose 0.01-100 µM
[17] = system: NCI-H460; experiment: Cell cycle arrest in human NCI-H460 cells assessed as increase in accumulation at S phase at 600 nM measured after 48 hrs by propidium iodide staining based flow cytometry analysis; format: functional
[18] = system: NCI-H460; experiment: Cell cycle arrest in human NCI-H460 cells assessed as decrease in accumulation at G1 phase at 600 nM measured after 48 hrs by propidium iodide staining based flow cytometry analysis; format: functional
[19] = system: NCI-H460; experiment: Antiproliferative activity against human NCI-H460 cells assessed as reduction in cell growth measured after 48 hrs by sulforhodamine B assay; format: functional

c1ccc([P+](CCCCCCCCCCCCOCCc2ccc3c(c2)OCO3)(c2ccccc2)c2ccccc2)cc1
GI50 [1]: 220 nM
GI50 [2]: 190 nM
GI50 [3]: 59 nM
GI50 [4]: 210 nM
GI50 [5]: 170 nM
GI50 [6]: 180 nM
GI50 [7]: 4600 nM

c1ccc(COc2ccc(CCOCCCCC[P+](c3ccccc3)(c3ccccc3)c3ccccc3)cc2)cc1
GI50 [1]: 77 nM
GI50 [2]: 180 nM
GI50 [3]: 88 nM
GI50 [4]: 84 nM
GI50 [5]: 89 nM
GI50 [6]: 190 nM
GI50 [7]: 2900 nM

c1ccc(COc2ccc(CCOCCCCC[P+](c3ccccc3)(c3ccccc3)c3ccccc3)cc2OCc2ccccc2)cc1
GI50 [1]: 270 nM
GI50 [2]: 310 nM
GI50 [3]: 130 nM
GI50 [4]: 200 nM
GI50 [5]: 230 nM
GI50 [6]: 310 nM
GI50 [7]: 3500 nM

c1ccc(CCOCCCCC[P+](c2ccccc2)(c2ccccc2)c2ccccc2)cc1
GI50 [1]: 310 nM
GI50 [2]: 220 nM
GI50 [3]: 370 nM
GI50 [4]: 440 nM
GI50 [5]: 330 nM
GI50 [6]: 220 nM
GI50 [7]: 32000 nM

COc1ccc(CCOCCCCCC[P+](c2ccccc2)(c2ccccc2)c2ccccc2)cc1OC
GI50 [1]: 420 nM
GI50 [2]: 380 nM
GI50 [3]: 740 nM
GI50 [4]: 550 nM
GI50 [5]: 490 nM
GI50 [6]: 460 nM
GI50 [7]: 34000 nM

[Br-].c1ccc(CCOCCCCCC[P+](c2ccccc2)(c2ccccc2)c2ccccc2)cc1
Activity [8]: Active
GI50 [1]: 170 nM
Activity [9]: Active
GI50 [2]: 140 nM
GI50 [10]: 4600 nM
GI50 [3]: 130 nM
Activity [11]: Active
GI50 [4]: 260 nM
Activity [12]: 37%
Activity [13]: Active
GI50 at 48 h [14]: 15300 nM
RatioGI50 [15]: 8.1
GI50 [5]: 160 nM
GI50 [16]: 610 nM
Activity [17]: Active
GI50 [6]: 140 nM
Activity [18]: Active
GI50 [7]: 35000 nM
GI50 [19]: 570 nM

c1ccc(CCOCCCCCCCCCCCC[P+](c2ccccc2)(c2ccccc2)c2ccccc2)cc1
GI50 [1]: 330 nM
GI50 [2]: 260 nM
GI50 [3]: 170 nM
GI50 [4]: 290 nM
GI50 [5]: 250 nM
GI50 [6]: 270 nM
GI50 [7]: 4400 nM

c1ccc(COc2ccc(CCOCCCCCC[P+](c3ccccc3)(c3ccccc3)c3ccccc3)cc2)cc1
GI50 [1]: 180 nM
GI50 [2]: 240 nM
GI50 [3]: 120 nM
GI50 [4]: 250 nM
GI50 [5]: 120 nM
GI50 [6]: 200 nM
GI50 [7]: 3100 nM

c1ccc(COc2ccc(CCOCCCCCC[P+](c3ccccc3)(c3ccccc3)c3ccccc3)cc2OCc2ccccc2)cc1
GI50 [1]: 320 nM
GI50 [2]: 1000 nM
GI50 [3]: 250 nM
GI50 [4]: 470 nM
GI50 [5]: 350 nM
GI50 [6]: 810 nM
GI50 [7]: 3300 nM

c1ccc(COc2ccc(CCOCCCCCCCCCCCC[P+](c3ccccc3)(c3ccccc3)c3ccccc3)cc2)cc1
GI50 [1]: 600 nM
GI50 [2]: 770 nM
GI50 [3]: 450 nM
GI50 [4]: 370 nM
GI50 [5]: 420 nM
GI50 [6]: 570 nM
GI50 [7]: 3300 nM

COc1ccc(CCOCCCCCCCCCCCC[P+](c2ccccc2)(c2ccccc2)c2ccccc2)cc1OC
GI50 [1]: 210 nM
GI50 [2]: 220 nM
GI50 [3]: 26 nM
GI50 [4]: 260 nM
GI50 [5]: 170 nM
GI50 [6]: 210 nM
GI50 [7]: 4300 nM

COc1ccc(CCOCCCCC[P+](c2ccccc2)(c2ccccc2)c2ccccc2)cc1OC
GI50 [1]: 2300 nM
GI50 [2]: 1500 nM
GI50 [3]: 3400 nM
GI50 [4]: 4200 nM
GI50 [5]: 2100 nM
GI50 [6]: 2000 nM
GI50 [7]: 57000 nM

c1ccc(COc2ccc(CCOCCCCCCCCCCCC[P+](c3ccccc3)(c3ccccc3)c3ccccc3)cc2OCc2ccccc2)cc1
GI50 [1]: 330 nM
GI50 [2]: 450 nM
GI50 [3]: 170 nM
GI50 [4]: 240 nM
GI50 [5]: 320 nM
GI50 [6]: 500 nM
GI50 [7]: 3500 nM

[Br-].c1ccc([P+](CCCCCCOCCc2ccc3c(c2)OCO3)(c2ccccc2)c2ccccc2)cc1
Activity [8]: Active
GI50 [1]: 350 nM
Activity [9]: Active
GI50 [2]: 240 nM
GI50 [10]: 3600 nM
GI50 [3]: 870 nM
Activity [11]: Active
GI50 [4]: 580 nM
Activity [12]: 27%
Activity [13]: Active
GI50 at 48 h [14]: 62700 nM
RatioGI50 [15]: 6
GI50 [5]: 350 nM
GI50 [16]: 590 nM
Activity [17]: Active
GI50 [6]: 270 nM
Activity [18]: Active
GI50 [7]: 43000 nM
GI50 [19]: 600 nM

COc1ccc(CCOCCCCCCCCCCCC[P+](c2ccccc2)(c2ccccc2)c2ccccc2)cc1
GI50 [1]: 320 nM
GI50 [2]: 320 nM
GI50 [3]: 180 nM
GI50 [4]: 340 nM
GI50 [5]: 250 nM
GI50 [6]: 290 nM
GI50 [7]: 3600 nM

COc1ccc(CCOCCCCC[P+](c2ccccc2)(c2ccccc2)c2ccccc2)cc1
GI50 [1]: 390 nM
GI50 [2]: 330 nM
GI50 [3]: 400 nM
GI50 [4]: 520 nM
GI50 [5]: 370 nM
GI50 [6]: 310 nM
GI50 [7]: 28000 nM

c1ccc([P+](CCCCCOCCc2ccc3c(c2)OCO3)(c2ccccc2)c2ccccc2)cc1
GI50 [1]: 540 nM
GI50 [2]: 330 nM
GI50 [3]: 1400 nM
GI50 [4]: 680 nM
GI50 [5]: 640 nM
GI50 [6]: 360 nM
GI50 [7]: 37000 nM

COc1ccc(CCOCCCCCC[P+](c2ccccc2)(c2ccccc2)c2ccccc2)cc1
GI50 [1]: 270 nM
GI50 [2]: 230 nM
GI50 [3]: 260 nM
GI50 [4]: 370 nM
GI50 [5]: 220 nM
GI50 [6]: 200 nM
GI50 [7]: 30000 nM

O=c1[nH]cc(F)c(=O)[nH]1 [FLUOROURACIL]
GI50 [1]: 16000 nM
GI50 [2]: 49000 nM
GI50 [3]: 2200 nM
GI50 [4]: 4400 nM
GI50 [5]: 3300 nM
GI50 [6]: 43000 nM
GI50 [7]: 5500 nM
